The target of the test is T1, RET M918T (Homo sapiens, UniProt P07949, M918T).
T1 construct: purchased Thermo Fisher Scientific (Life Technologies) SelectScreen
In words: SelectScreen LanthaScreen. The class given is binding. The note with it: read-out: % displacement. The method, boiled down: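 Percent values come from Thermo SelectScreen profiling of NU5455, combining activity and binding assays. CSF1R was run in Z'LYTE format at Km app ATP, and CAMK1 in Adapta format with ATP listed at 10.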

T1 sequence (P07949 29-1114 M918T): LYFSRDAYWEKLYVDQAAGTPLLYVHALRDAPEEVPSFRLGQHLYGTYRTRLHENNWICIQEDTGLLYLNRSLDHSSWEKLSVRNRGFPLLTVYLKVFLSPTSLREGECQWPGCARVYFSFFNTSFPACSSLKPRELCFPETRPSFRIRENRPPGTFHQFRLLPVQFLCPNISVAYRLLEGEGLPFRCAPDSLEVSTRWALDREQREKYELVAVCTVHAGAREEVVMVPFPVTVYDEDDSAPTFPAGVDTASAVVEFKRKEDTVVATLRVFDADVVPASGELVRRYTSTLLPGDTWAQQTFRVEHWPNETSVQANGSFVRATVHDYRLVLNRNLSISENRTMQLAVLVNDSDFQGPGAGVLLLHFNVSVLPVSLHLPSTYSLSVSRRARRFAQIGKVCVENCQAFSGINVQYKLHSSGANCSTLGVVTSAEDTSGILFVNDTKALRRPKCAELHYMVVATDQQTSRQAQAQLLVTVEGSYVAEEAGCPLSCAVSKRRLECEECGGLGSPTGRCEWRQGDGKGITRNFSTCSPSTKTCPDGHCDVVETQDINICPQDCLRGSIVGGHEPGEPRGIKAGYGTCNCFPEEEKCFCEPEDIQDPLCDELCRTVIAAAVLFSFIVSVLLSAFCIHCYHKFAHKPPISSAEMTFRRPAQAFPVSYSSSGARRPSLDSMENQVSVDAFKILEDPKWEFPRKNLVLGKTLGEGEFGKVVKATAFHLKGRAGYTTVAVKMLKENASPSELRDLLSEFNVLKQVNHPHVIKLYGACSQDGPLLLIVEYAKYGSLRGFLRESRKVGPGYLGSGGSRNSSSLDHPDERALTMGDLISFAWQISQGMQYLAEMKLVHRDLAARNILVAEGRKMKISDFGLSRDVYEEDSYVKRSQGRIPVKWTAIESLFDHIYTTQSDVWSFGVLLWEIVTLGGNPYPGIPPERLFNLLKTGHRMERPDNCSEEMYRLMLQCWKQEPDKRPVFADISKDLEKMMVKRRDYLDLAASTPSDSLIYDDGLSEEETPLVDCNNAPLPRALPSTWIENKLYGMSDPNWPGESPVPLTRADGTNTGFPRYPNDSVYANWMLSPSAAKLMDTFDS

Take `CN(C(=O)CN1CCOCC1)c1ccc2sc3c(-c4cccc5c(=O)cc(N6CC7CCC(C6)O7)oc45)cccc3c2c1` [NU5455]: the inhibition at 1 µM is -3.5%.

For the origin of these results see article PMC6934184, “Selective DNA-PKcs inhibition extends the therapeutic index of localized radiotherapy and chemotherapy” (The Journal of Clinical Investigation, 2019).
